Test results: patent US20240158446A1, “CYCLIC COMPOUND HAVING SELECTIVE INHIBITORY ACTION ON KRAS OVER HRAS AND NRAS” (CHUGAI SEIYAKU KABUSHIKI KAISHA, priority 2021, published 2024)
Like-named read-outs stand apart in the source and are kept apart here.

Tests used:
[1] = biological target: GDP-bound KRAS wild-type protein (Homo sapiens, UniProt P01116); assay: Binding to KRAS by surface plasmon resonance (SPR), Single Cycle Kinetics; details: GDP-bound KRAS wild-type protein, read-out: KRAS KD
Sequence of GDP-bound KRAS wild-type protein (P01116 whole entry): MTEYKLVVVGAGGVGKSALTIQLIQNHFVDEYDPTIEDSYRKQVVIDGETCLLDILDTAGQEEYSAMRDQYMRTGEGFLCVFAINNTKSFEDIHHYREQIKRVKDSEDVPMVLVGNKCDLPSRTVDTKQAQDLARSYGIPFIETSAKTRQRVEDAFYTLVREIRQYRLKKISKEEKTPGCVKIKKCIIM

[2] = biological target: GDP-bound NRAS wild-type protein (Homo sapiens, UniProt P01111); assay: Binding to NRAS by surface plasmon resonance (SPR), Single Cycle Kinetics; details: for NRAS/KRAS (ratio of KD value with respect to GDP-bound NRAS wild-type protein to KD value with respect to KRAS): SPR KD ratio NRAS/KRAS, class symbols; for NRAS/KRAS (ratio of KD value for NRAS to KD value for KRAS): SPR, GDP-bound NRAS wild-type protein vs GDP-bound KRAS wild-type protein
Sequence of GDP-bound NRAS wild-type protein (P01111 whole entry): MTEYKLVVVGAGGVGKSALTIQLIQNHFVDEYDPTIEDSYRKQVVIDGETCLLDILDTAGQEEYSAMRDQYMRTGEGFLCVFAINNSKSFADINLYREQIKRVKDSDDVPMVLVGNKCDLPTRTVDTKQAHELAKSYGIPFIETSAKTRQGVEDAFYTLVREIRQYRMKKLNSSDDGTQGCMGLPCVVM

[3] = biological target: GDP-bound HRAS wild-type protein (Homo sapiens, UniProt P01112); assay: Binding to HRAS by surface plasmon resonance (SPR), Single Cycle Kinetics; details: for HRAS/KRAS (ratio of KD value with respect to GDP-bound HRAS wild-type protein to KD value with respect to KRAS): SPR KD ratio HRAS/KRAS, class symbols; for HRAS/KRAS (ratio of KD value for HRAS to KD value for KRAS): SPR, GDP-bound HRAS wild-type protein vs GDP-bound KRAS wild-type protein
Sequence of GDP-bound HRAS wild-type protein (P01112 whole entry): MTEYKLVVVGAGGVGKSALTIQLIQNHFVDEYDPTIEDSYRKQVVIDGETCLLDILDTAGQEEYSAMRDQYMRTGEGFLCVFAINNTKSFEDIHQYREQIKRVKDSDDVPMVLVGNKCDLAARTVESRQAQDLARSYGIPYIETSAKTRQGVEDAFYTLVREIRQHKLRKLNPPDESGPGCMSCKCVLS

[4] = SPR Single Cycle Kinetics, 1:1 binding model

Kd [1, 4] [nM]	Kd ([1]; SPR, Single Cycle Kinetics) [nM]	Structure (SMILES)	NRAS/KRAS (ratio of KD value with respect to GDP-bound NRAS wild-type protein to KD value with respect to KRAS) [2]	HRAS/KRAS (ratio of KD value with respect to GDP-bound HRAS wild-type protein to KD value with respect to KRAS) [3]	NRAS/KRAS (ratio of KD value for NRAS to KD value for KRAS) [2]	HRAS/KRAS (ratio of KD value for HRAS to KD value for KRAS) [3]
0.055	–	CCC[C@H]1C(=O)N[C@@H]([C@@H](C)CC)C(=O)N(C)CC(=O)N(C)[C@H]2C/C=C\CCN(C2=O)[C@@H](Cc2ccc(C(F)(F)F)cc2)C(=O)N(C)CC(=O)N[C@@H](CCc2ccc3sc(F)c(C)c3c2)C(=O)N2C[C@H](OCC)C[C@H]2C(=O)NC2(CC(C)(C)C2)C(=O)N(C)[C@@H](C2CCCC2)C(=O)N(C)[C@H](C(=O)N(C)C)CC(=O)N1C [PP2948]	A (a compound having 10 or more and less than 20 is denoted as A)	A (a compound having 10 or more and less than 20 is denoted as A)	–	–
0.059	–	CCC[C@H]1C(=O)N[C@@H]([C@@H](C)CC)C(=O)N(C)CC(=O)N(C)[C@H]2C/C=C\CCN(C2=O)[C@@H](Cc2ccc(C)cc2)C(=O)N(C)CC(=O)N[C@@H](CCc2ccc3sc(F)c(C)c3c2)C(=O)N2C[C@H](OCC)C[C@H]2C(=O)NC2(CC(C)(C)C2)C(=O)N(C)[C@@H](C2CCCC2)C(=O)N(C)[C@H](C(=O)N(C)C)CC(=O)N1C [PP2949]	A (a compound having 10 or more and less than 20 is denoted as A)	A (a compound having 10 or more and less than 20 is denoted as A)	–	–
0.76	–	CCC[C@H]1C(=O)N[C@@H]([C@@H](C)CC)C(=O)N(C)CC(=O)N(C)[C@H]2C/C=C\CCN(C2=O)[C@@H](Cc2ccc(C(F)(F)F)cc2)C(=O)N(C)CC(=O)N[C@@H](CCc2cc(Cl)c3c(ccn3C)c2)C(=O)N2C[C@H](OCC)C[C@H]2C(=O)NC2(CC(C)(C)C2)C(=O)N(C)[C@@H](C2CCCC2)C(=O)N(C)[C@H](C(=O)N(C)C)CC(=O)N1C [PP2950]	A (a compound having 10 or more and less than 20 is denoted as A)	A (a compound having 10 or more and less than 20 is denoted as A)	–	–
0.23	–	CCO[C@@H]1C[C@H]2C(=O)NC3(CCC3)C(=O)N(C)[C@@H](C(CC)CC)C(=O)N(C)[C@H](C(=O)N3CCCC3)CC(=O)N(C)[C@H]3CCC/C=C/c4ccc(cc4)C[C@@H](C(=O)N(C)CC(=O)N[C@@H](CCc4cc(F)c(C(F)(F)F)c(F)c4)C(=O)N2C1)N1CC/C=C\C[C@@H](C1=O)N(C)C(=O)CN(C1CC1)C(=O)[C@H]([C@@H](C)CC)NC3=O [PP2957]	AA (a compound having 20 or more is denoted as AA)	A (a compound having 10 or more and less than 20 is denoted as A)	–	–
0.36	–	CCC(CC)[C@H]1C(=O)N(C)[C@H](C(=O)N(C)C)CC(=O)N(C)[C@@H](COC)C(=O)N[C@@H]([C@@H](C)CC)C(=O)N(C)CC(=O)N(C)[C@H]2C/C=C\CCN(C2=O)[C@@H](Cc2ccc(C(F)(F)F)cc2)C(=O)N(C)CC(=O)N[C@@H](CCc2cc(F)c(C(F)(F)F)c(F)c2)C(=O)N2CC3(CC3)C[C@H]2C(=O)NC2(CC(C)(C)C2)C(=O)N1C [PP2961]	AA (a compound having 20 or more is denoted as AA)	A (a compound having 10 or more and less than 20 is denoted as A)	–	–
1.2	–	CCC[C@H]1C(=O)N[C@@H]([C@@H](C)CC)C(=O)N(C)CC(=O)N(C)[C@H]2C/C=C\CCN(C2=O)[C@@H](Cc2ccc(C)cc2)C(=O)N(C)CC(=O)N[C@@H](CCc2ccc(Cl)c(Cl)c2)C(=O)N2CCCCC[C@H]2C(=O)NC2(CC(C)(C)C2)C(=O)N(C)[C@@H](C(CC)CC)C(=O)N(C)[C@H](C(=O)N(C)C)CC(=O)N1C [PP2962]	AA (a compound having 20 or more is denoted as AA)	A (a compound having 10 or more and less than 20 is denoted as A)	–	–
0.39	–	CCC(CC)[C@H]1C(=O)N(C)[C@H](C(=O)N(C)C)CC(=O)N(C)[C@@H](COC)C(=O)N[C@@H]([C@@H](C)CC)C(=O)N(C)CC(=O)N(C)[C@H]2C/C=C\CCN(C2=O)[C@@H](Cc2ccc(C)cc2)C(=O)N(C)CC(=O)N[C@@H](CCc2cc(F)c(C(F)(F)F)c(F)c2)C(=O)N2CC3(CC3)C[C@H]2C(=O)NC2(CC(C)(C)C2)C(=O)N1C [PP2963]	AA (a compound having 20 or more is denoted as AA)	A (a compound having 10 or more and less than 20 is denoted as A)	–	–
0.85	–	CCC[C@H]1C(=O)N[C@@H]([C@@H](C)CC)C(=O)N(C)CC(=O)N(C)[C@H]2C/C=C\CCN(C2=O)[C@@H](Cc2ccc(C(F)(F)F)cc2)C(=O)N(C)CC(=O)N[C@@H](CCc2ccc(C(F)(F)F)c(Cl)c2)C(=O)N2CCCCC[C@H]2C(=O)NC2(CC(C)(C)C2)C(=O)N(C)[C@@H](C(CC)CC)C(=O)N(C)[C@H](C(=O)N(C)C)CC(=O)N1C [PP2964]	AA (a compound having 20 or more is denoted as AA)	A (a compound having 10 or more and less than 20 is denoted as A)	–	–
0.47	–	CCC(CC)[C@H]1C(=O)N(C)[C@H](C(=O)N(C)C)CC(=O)N(C)[C@@H](COC)C(=O)N[C@@H]([C@@H](C)CC)C(=O)N(C)CC(=O)N(C)[C@H]2C/C=C\CCN(C2=O)[C@@H](Cc2ccc(C(F)(F)F)cc2)C(=O)N(C)CC(=O)N[C@@H](CCc2ccc(C(F)(F)F)c(Cl)c2)C(=O)N2CC3(CC3)C[C@H]2C(=O)NC2(CC(C)(C)C2)C(=O)N1C [PP2965]	AA (a compound having 20 or more is denoted as AA)	A (a compound having 10 or more and less than 20 is denoted as A)	–	–
0.55	–	CCC[C@H]1C(=O)N[C@@H]([C@@H](C)CC)C(=O)N(C)CC(=O)N(C)[C@H]2C/C=C\CCN(C2=O)[C@@H](Cc2ccc(C(F)(F)F)cc2)C(=O)N(C)CC(=O)N[C@@H](CCc2ccc(C(F)(F)F)c(OC)c2)C(=O)N2CCCCC[C@H]2C(=O)NC2(CC(C)(C)C2)C(=O)N(C)[C@@H](C(CC)CC)C(=O)N(C)[C@H](C(=O)N(C)C)CC(=O)N1C [PP2968]	AA (a compound having 20 or more is denoted as AA)	A (a compound having 10 or more and less than 20 is denoted as A)	–	–
0.073	–	CCC[C@H]1C(=O)N[C@@H]([C@@H](C)CC)C(=O)N(C)CC(=O)N(C)[C@H]2C/C=C\CCN(C2=O)[C@@H](Cc2ccc(C(F)(F)F)cc2)C(=O)N(C)CC(=O)N[C@@H](CCc2ccc(C(F)(F)F)c(Cl)c2)C(=O)N2C[C@H](OCC)C[C@H]2C(=O)NC2(CC(C)(C)C2)C(=O)N(C)[C@@H](CC(C)(C)C)C(=O)N(C)[C@H](C(=O)N(C)C)CC(=O)N1C [PP2969]	AA (a compound having 20 or more is denoted as AA)	A (a compound having 10 or more and less than 20 is denoted as A)	–	–
–	0.19	CCC[C@H]1C(=O)N[C@@H](C2CCCC2)C(=O)N(C)CC(=O)N(C)[C@H]2C/C=C\CCN(C2=O)[C@@H](Cc2ccc(C(F)(F)F)cc2)C(=O)N(C)CC(=O)N[C@@H](CCc2ccc(C(F)(F)F)c(Cl)c2)C(=O)N2C[C@H](OCC)C[C@H]2C(=O)NC2(CC(C)(C)C2)C(=O)N(C)[C@@H](CC(C)(C)C)C(=O)N(C)[C@H](C(=O)N(C)C)CC(=O)N1C [PP2971]	–	–	A (a compound having 10 or more and less than 20 is denoted as A)	A (a compound having 10 or more and less than 20 is denoted as A)
–	0.18	CCC[C@H]1C(=O)N[C@@H]([C@@H](C)CC)C(=O)N(C)CC(=O)N(C)[C@H]2C/C=C\CCN(C2=O)[C@@H](Cc2ccc(C(F)(F)F)cc2)C(=O)N(C)CC(=O)N[C@@H](CCc2ccc(C(F)(F)F)c(Cl)c2)C(=O)N2C[C@H](OCC)C[C@H]2C(=O)NC2(CC(C)(C)C2)C(=O)N(C)[C@@H]([C@@H](C)CC)C(=O)N(C)[C@H](C(=O)N(C)C)CC(=O)N1C [PP2973]	–	–	A (a compound having 10 or more and less than 20 is denoted as A)	A (a compound having 10 or more and less than 20 is denoted as A)

Structure (SMILES)	Kd [1, 4] [nM]	Kd ([1]; SPR, Single Cycle Kinetics) [nM]	NRAS/KRAS (ratio of KD value with respect to GDP-bound NRAS wild-type protein to KD value with respect to KRAS) [2]	HRAS/KRAS (ratio of KD value with respect to GDP-bound HRAS wild-type protein to KD value with respect to KRAS) [3]	NRAS/KRAS (ratio of KD value for NRAS to KD value for KRAS) [2]	HRAS/KRAS (ratio of KD value for HRAS to KD value for KRAS) [3]
CCO[C@@H]1C[C@H]2C(=O)NC3(CCC3)C(=O)N(C)[C@@H](C3CCCC3)C(=O)N(C)[C@H](C(=O)N3CCCCC3)CC(=O)N(C)[C@H]3CCC/C=C/c4ccc(cc4)C[C@@H](C(=O)N(C)CC(=O)N[C@@H](CCc4cc(F)c(C(F)(F)F)c(F)c4)C(=O)N2C1)N1CC/C=C\C[C@@H](C1=O)N(C)C(=O)CN(C1CC1)C(=O)[C@H]([C@@H](C)CC)NC3=O [PP2954]	0.37	–	A (a compound having 10 or more and less than 20 is denoted as A)	A (a compound having 10 or more and less than 20 is denoted as A)	–	–
CCO[C@@H]1C[C@H]2C(=O)NC3(CCC3)C(=O)N(C)[C@@H](C(CC)CC)C(=O)N(C)[C@H](C(=O)N3CCCCC3)CC(=O)N(C)[C@H]3CCC/C=C/c4ccc(cc4)C[C@@H](C(=O)N(C)CC(=O)N[C@@H](CCc4cc(F)c(C(F)(F)F)c(F)c4)C(=O)N2C1)N1CC/C=C\C[C@@H](C1=O)N(C)C(=O)CN(C1CC1)C(=O)[C@H]([C@@H](C)CC)NC3=O [PP2956]	1.1	–	AA (a compound having 20 or more is denoted as AA)	A (a compound having 10 or more and less than 20 is denoted as A)	–	–
